Experiment [1] has as its target T1, Glutathione reductase (Saccharomyces cerevisiae S288c, UniProt P41921).
T1 sequence (P41921 whole entry): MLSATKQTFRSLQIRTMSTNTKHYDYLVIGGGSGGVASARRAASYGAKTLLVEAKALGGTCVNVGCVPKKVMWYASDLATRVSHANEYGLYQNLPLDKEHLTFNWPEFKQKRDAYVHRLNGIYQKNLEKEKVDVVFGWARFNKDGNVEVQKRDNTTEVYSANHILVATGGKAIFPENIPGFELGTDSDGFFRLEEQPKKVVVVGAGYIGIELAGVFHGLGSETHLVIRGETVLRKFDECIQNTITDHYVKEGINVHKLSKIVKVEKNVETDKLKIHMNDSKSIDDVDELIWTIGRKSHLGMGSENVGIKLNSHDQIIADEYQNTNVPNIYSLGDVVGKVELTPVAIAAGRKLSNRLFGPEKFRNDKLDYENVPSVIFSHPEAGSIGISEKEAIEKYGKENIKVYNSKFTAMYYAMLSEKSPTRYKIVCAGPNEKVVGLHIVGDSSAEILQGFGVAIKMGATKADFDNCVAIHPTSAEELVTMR
Nature of the experiment: Inhibition of yeast glutathione reductase over 30 minutes pH 7.4 at 25 degree C.

Experiment [2] deals with T2, Glutathione S-transferase A1 (Homo sapiens) (UniProt P08263).
T2 sequence (whole entry): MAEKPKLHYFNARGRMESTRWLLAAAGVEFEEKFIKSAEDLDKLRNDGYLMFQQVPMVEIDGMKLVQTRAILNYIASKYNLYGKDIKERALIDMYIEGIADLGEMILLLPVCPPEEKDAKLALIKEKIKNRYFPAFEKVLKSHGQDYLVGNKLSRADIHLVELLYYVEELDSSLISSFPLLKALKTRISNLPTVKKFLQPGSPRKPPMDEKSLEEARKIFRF
The experiment is described as follows: Inhibitory activity of compound against glutathione S-transferase. Particulars: concentration not given here.

Experiment [3] has as its target T1, Glutathione reductase. Nature of the experiment: Inhibition of yeast glutathione reductase for 30 minutes pH 7.4 at 25 degree C at 0.2 mM.
The target in experiment [4] is T1, Glutathione reductase. Nature of the experiment: Inhibition of yeast glutathione reductase done for 30 minutes in pH 7.4 at 25 degree C with compound (0.2 mM).
Experiment [5] deals with T3, Glutathione reductase (Saccharomyces cerevisiae S288c) (UniProt P41921).
T3 sequence (whole entry): T1 sequence (P41921 whole entry)
Description: Kinact value for yeast glutathione reductase

Each structure is given as a SMILES string.

Consider eight molecules from ChEMBL document CHEMBL1145164, “2-Acetylamino-3-[4-(2-acetylamino-2-carboxyethylsulfanylcarbonylamino)- phenylcarbamoylsulfanyl]propionic acid and its derivatives as a novel class of glutathione reductase inhibitors” (J Med Chem, 2005).

By IC50 is commonly meant the concentration that gives 50% inhibition. For orientation: inhibition means the change of the read-out against control, counted positive when it falls. Read a high inhibition as a response far below the control. A word on the Ki: it is the equilibrium dissociation constant of an inhibitor or competing ligand from its target. Low values mean tighter binding, high ones weaker binding.

Take `CC(=O)NC(CSC(=O)NCCCCNC(=O)SCC(NC(C)=O)C(=O)O)C(=O)O` (stereo unspecified): the midpoint of inhibition in experiment [1], the IC50, lay at 515 µM. Same read-out and setting: with `CC(=O)NC(CSC(=O)NCc1ccc(NC(=O)SCC(NC(C)=O)C(=O)O)cc1)C(=O)O` (stereo unspecified) the figure was 117 µM; with `CC(=O)NC(CSC(=O)Nc1ccc(Cc2ccc(NC(=O)SCC(NC(C)=O)C(=O)O)cc2)cc1)C(=O)O` (stereo unspecified), 85 µM. The same measure, in the same setting: with `CC(=O)NC(CSC(=O)NCCCCCCNC(=O)SCC(NC(C)=O)C(=O)O)C(=O)O` (stereo unspecified) the figure was 455 µM; with `O=NN(CCCl)C(=O)NCCCl` [CARMUSTINE], 441 µM.

`CC(=O)NC(CSC(=O)Nc1cccc(NC(=O)SCC(NC(C)=O)C(=O)O)c1)C(=O)O` (stereo unspecified) came in with an IC50 in experiment [1] of 149 µM. In experiment [2], `CC(=O)NC(CSC(=O)Nc1ccc(NC(=O)SCC(NC(C)=O)C(=O)O)cc1)C(=O)O` (stereo unspecified) yielded an inhibition of 13%. In experiment [3], this molecule showed a Ki of 88 µM. For the same molecule, the IC50 in experiment [4] amounted to 50 µM. This molecule also gave a Kinact in experiment [5] of 0.1 min⁻¹. In the case of `CC(=O)NC(CSC(=O)NC1CCC(CC2CCC(NC(=O)SCC(NC(C)=O)C(=O)O)CC2)CC1)C(=O)O` (stereo unspecified), the IC50 in experiment [1] is 477 µM.
